Reference: patent publication US20130131140A1, “TREATMENT OF DIABETES AND DISORDERS ASSOCIATED WITH VISCERAL OBESITY WITH INHIBITORS OF HUMAN ARACHIDONATE 12 LIPOXYGENASE AND ARACHIDONATE 15-LIPOXYGENASE” (priority 2010, published 2013)
Entries after “also recorded” stand apart in the source; their conditions may differ.

Tests used:
human islets [1] = test: Glucose-stimulated insulin secretion in human islets; assay type: cell-based; conditions: for effect on insulin secretion: human islets, 1 and 100 nM, 4 hours incubation, then 1 hour in 11 mM glucose
Procedure: In other studies, human islets were cultured in CMRL medium-1066 (Invitrogen) with 5% fetal bovine serum overnight and then transitioned to serum free Kreb-Ringer buffer at 37° C., and islets were incubated with and without HETEs in 3 and 18 mM glucose for 4 hours, as shown in FIG. 12. The supernatant was collected after each treatment, and insulin concentration in the supernatant was measured by an enzyme immunoassay method (Mercodia, Uppsala, Sweden) with a mouse or human insulin standard. The intraassay variation was less than 4%, and the interassay variation was less than 10%.
LOs catalyze the oxidation of linoleic acid and arachidonic acid, generating products of varying stability. […] Referring to FIGS. 13A and 13B, 12(S)-HETE, 15(S)-HETE, 12-HPETE, and 12-RHETE were tested at 1 and 100 nM doses to examine their effects on insulin secretion. Human islets were incubated with the various HETEs for 4 hours and then assessed for insulin secretion during a 1-hour period incubated in 11 mM glucose. Also confirmed were the effects of 12(S)-HETE on basal (3 mM) and stimulated (18 mM) glucose concentration.

p38-MAPK = test: Western immunoblot of phosphorylated p38-MAPK in human islets; assay type: cell-based
From the text: (§1) Equal amounts of whole islet cell protein extracts were separated on polyacrylamide-sodium dodecyl sulfate gels and transferred to polyvinylidene difluoride transfer membranes (GE Healthcare, Buckinghamshire, UK). The blots were probed with primary antibodies, and bands were detected using horseradish […] secondary antibodies (GE Healthcare UK Limited, Chalfont, UK) and the enhanced chemiluminescence detection system (GE Healthcare).
(§2) Rabbit PAb anti-p38-MAPK (pTpY180/182) and anti-c-Jun N-terminal kinase (JNK)-1 and -2 (pTpY183/185) were purchased from Alpha BioSource/Invitrogen and were used at a 1:500 dilution. Mouse monoclonal anti-p38-MAPK (A-12) and rabbit polyclonal anti-actin (1-19) were purchased from Santa Cruz Biotechnology (Santa Cruz, Calif.). p38-MAPK was used at a 1:500 dilution, and actin was used at a 1:2500 dilution. Rabbit anti-12-LO (see Ref. 8) was used at a 1:1000 dilution.
(§3) To determine whether treating islets with 12(S)-HETE would affect the activity of two well-known stress-mediated pathways linked to β-cell damage, p38-MAPK and JNK in human islets, were investigated. […] The results are presented as the means±SD. *, P<0.05 compared with the corresponding control; #, P<0.05 compared with the cytokine treatment group.

human islets [2] = test: Cell death by propidium iodide (PI) fluorescence; assay type: cell-based; conditions: for cell death, PI staining intensity: overnight incubation
Procedure: Islets were treated with 20 μg/ml of propidium iodide (PI) and incubated for 10 minutes. Islets were imaged once under brightfield illumination to determine the islet borders and imaged again to measure PI fluorescence using 535-nm excitation and 617-nm emission as previously reported (11). Islets were circled, and the mean PI fluorescence intensity was determined for each islet individually. Three separate trials from three donors were conducted.
Islet cell death was evaluated by PI staining in islets after overnight incubation with 1, 10, or 100 nM 12(S)-HETE. […] This finding is consistent with dose-response measures of cell death previously observed with mouse islets (8).

JNK-1 and -2 = test: Western immunoblot of phosphorylated JNK in human islets; assay type: cell-based; conditions: human islets treated with 12(S)-HETE
From the text: as §1, §2, §3

human islets [3] = conditions: 50 μm LSF overnight pretreatment, then 1 nm 12(S)-HETE 4 hours
Procedure: Viability was assessed by detecting 3-(4,5-dimethylthiazol-2-yl)-2,5-diphenyltetrazolium bromide (MTT; Sigma-Aldrich) metabolism as previously described (17).
Human islets from four different human donors were pretreated with 50 μm LSF overnight or untreated as indicated. Islets were then treated with 1 nm 12(S)-HETE for 4 hours and incubated in 11 mm glucose for 1 hour to measure islet metabolic activity by MTT assay (A) or insulin secretion (B).

[4] = human islets treated with 12(S)-HETE

CCCCC/C=C\C[C@@H](O)/C=C/C=C\C/C=C\CCCC(=O)O [12(S)-HETE, 12-hydroxyeicosatetraenoic acid]
effect on insulin secretion (human islets [1]): consistently reduced; also recorded: most substantial reduction in insulin secretion
phosphorylated p38 (pp38) protein activity (p38-MAPK; [4]): increased phosphorylated p38
total p38-MAPK (p38) (p38-MAPK; [4]): without any change
increase in cell death (human islets [2]; 100 nM): 50%
cell death, PI staining intensity (human islets [2]; 100 nM): significant increase in cell death
cell death, PI staining intensity (human islets [2]; 1 or 10 nM): no significant increase in cell death
phosphorylated JNK (ppJNK1 and -2) activity (JNK-1 and -2): not affected

N#CC(=Cc1ccc(O)c(O)c1)C(=O)OCC=Cc1ccccc1 [CDC, cinnamyl-3,4-dihydroxy-α-cyanocinnamate]
cytokine-induced pp38-MAPK activity (p38-MAPK; human islets pretreated with CDC, cytokines TNF-α, IFN-γ, IL-1β): significantly reduced; also recorded: blocked

C[C@@H](O)CCCCn1c(=O)c2c(ncn2C)n(C)c1=O [LSF, Lisofylline]
reversal of 12(S)-HETE-induced reduction in insulin secretion (human islets [1]; 50 μm LSF overnight pretreatment, then 1 nm 12(S)-HETE 4 hours, 11 mm glucose 1 hour): reversed
reversal of 12(S)-HETE effects on metabolic activity (MTT assay) (human islets [3]): partially reversed

CCCCC/C=C\CC(/C=C/C=C\C/C=C\CCCC(=O)O)OO (stereo not drawn) [12-HPETE, 12-hydroperoxyeicosatetraenoic acid]
effect on insulin secretion (human islets [1]): consistently reduced
effect on insulin secretion (human islets [1]; listed as 12(S)HPETE): most substantial reduction in insulin secretion
